According to publication PMC10732257 (Oncotarget, 2023):

Experiments:
[1] = test system: MV-4-11 xenograft; experiment: Anti-tumor efficacy in subcutaneous MV-4-11 xenograft model; assay type: in vivo, female BALB/c nude mice
Procedure: Figure 6 Anti-tumor efficacy of GFH009 in MV-4-11 xenograft model. MV-4-11 xenograft in female BALB/c nude mice were treated with GFH009 or enitociclib at the indicated doses (n = 8 mice per group). Results are expressed as mean ± SEM. ^* P < 0.05, ^**** P < 0.0001, two-way ANOVA with Dunnett’s multiple comparisons test analysis compared to Vehicle control group.
In vivo studies of tumor suppression were conducted in female BALB/c nude mice (Beijing Vital River Laboratory Animal Technology Co, Ltd., Changping, Beijing, China) bearing MV-4-11 xenografts (ATCC, Rockville, MD, USA). Each mouse was inoculated subcutaneously into the right dorsal-region with 5.0 × 10^6 cultured MV-4-11 cells in a total volume of 0.2 ml solution and allowed to develop xenograft tumors. Once tumor size had reached […], mice were divided into groups to receive 1 of 8 different treatment preparations dosed intravenously via the tail vein (Table 2). […] Enitociclib was administered as a 1.0 mg/mL solution in ultrapure water with 5% DMSO. Vehicle control was 50 mM PBS with no dissolved treatment drug.
Animals dosed BIW were given treatments on 2 consecutive days. Weights were recorded for each mouse every day and tumor volumes assessed 3 times a week. Total treatment administration occurred across 3 consecutive weeks.
Subcutaneous tumor volume (TV) was calculated as TV = (L × W^2)/2, where L was the length and W was the width of the tumor [11]. […] TGI was calculated as TGI (%) = (1 – avTi-0/ avCi-0)) × 100, where avTi-0 is the mean TV of the treatment group on a given day minus the mean TV of this treatment group on the day of group assignment, and avCi-0 is the mean TV of the vehicle control group on a given day minus the mean TV of the vehicle control group on the day of group assignment.
Tumor volume data was subjected to a base-10 logarithmic transformation and subsequent comparisons of TV across groups was made using two-way ANOVA (Dunnett’s multiple comparisons test). All plotting and statistical analyses were conducted using GraphPad Prism 6.00 (GraphPad Software).

[2] = test system: human hematological malignancy-derived cell lines; experiment: Cell viability / antiproliferative activity by CellTiter Glo; assay type: cell-based; conditions: in 7 of the 10 lines tested, 24 hours of exposure
Procedure: Figure 3 Effect of GFH009 on cell proliferation in assorted human hematologic malignancy cell lines. Cell viability IC50s for GFH009 on human hematological malignancy-derived cell lines after 24 hours of exposure to the agent were determined using CellTiter Glo.
The antiproliferative activity of GFH009 was assessed in cultured cell lines derived from human hematological malignancies over a period of 24-hour in vitro assay readouts. Enitociclib was used as a comparator for experimental validation (provided by MedChem Express, Monmouth, NJ, USA). Cell growth was analyzed by CellTiter Glo in 96-well plates and detected via chemiluminescent signal. The absolute inhibitory concentration of 50% (AbsIC50 values of the drug were calculated by fitting the drug inhibition rate curve with the “log (inhibitor) versus response – variable slope (4 parameters)” model by using the Prism GraphPad 6 for Windows v6.01 software.

[3] = target: T1, 5-HT1B (serotonin) (Homo sapiens, UniProt P28222); experiment: GPCR agonist action testing; assay type: cell-based
T1 construct: Wuxi AppTech (Shanghai, China)
T1 sequence (P28222 whole entry, species assumed): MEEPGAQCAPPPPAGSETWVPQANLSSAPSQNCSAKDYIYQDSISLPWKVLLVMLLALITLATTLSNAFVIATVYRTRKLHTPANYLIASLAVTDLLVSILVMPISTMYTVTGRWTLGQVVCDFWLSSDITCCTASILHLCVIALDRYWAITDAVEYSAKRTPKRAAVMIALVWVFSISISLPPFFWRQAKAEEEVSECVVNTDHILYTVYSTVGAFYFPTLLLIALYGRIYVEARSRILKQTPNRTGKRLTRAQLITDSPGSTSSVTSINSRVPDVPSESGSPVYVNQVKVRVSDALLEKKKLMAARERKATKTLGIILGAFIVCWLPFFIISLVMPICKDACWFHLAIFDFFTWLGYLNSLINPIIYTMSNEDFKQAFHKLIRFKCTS
Source text: (§1) Supplementary Table 2: Results of GPCR agonist action testing of GFH009 administered at a
(§2) Agonist action against GPCR type shown below
(§3) Target % Agonist Effect @ Max Dose
(§4) M1 (muscarinic Ach) −2.18
(§5) M2 (muscarinic Ach) −0.63

[4] = target: T2, CB1 (cannabinoid) (Homo sapiens, UniProt P21554); experiment: GPCR agonist action testing; assay type: cell-based
T2 construct: Wuxi AppTech (contract laboratory)
T2 sequence (P21554 whole entry, species assumed): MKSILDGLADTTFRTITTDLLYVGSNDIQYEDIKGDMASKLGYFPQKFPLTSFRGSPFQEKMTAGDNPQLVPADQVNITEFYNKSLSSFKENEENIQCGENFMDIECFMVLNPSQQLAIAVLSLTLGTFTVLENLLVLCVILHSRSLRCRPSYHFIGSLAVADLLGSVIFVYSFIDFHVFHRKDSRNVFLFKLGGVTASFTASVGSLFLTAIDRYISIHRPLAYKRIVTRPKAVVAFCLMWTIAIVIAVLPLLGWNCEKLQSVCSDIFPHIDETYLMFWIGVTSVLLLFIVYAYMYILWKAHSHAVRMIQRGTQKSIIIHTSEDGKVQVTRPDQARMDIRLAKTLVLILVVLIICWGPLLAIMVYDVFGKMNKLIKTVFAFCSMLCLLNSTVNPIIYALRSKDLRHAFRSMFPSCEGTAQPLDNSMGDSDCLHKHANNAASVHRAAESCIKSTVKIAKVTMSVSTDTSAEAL
Source text: as §1, §2, §3, §4, §5

[5] = target: T3, a1a (adrenoceptor) (Homo sapiens, UniProt P35348); experiment: GPCR agonist action testing; assay type: cell-based
T3 construct: Wuxi AppTech (contract laboratory)
T3 sequence (P35348 whole entry): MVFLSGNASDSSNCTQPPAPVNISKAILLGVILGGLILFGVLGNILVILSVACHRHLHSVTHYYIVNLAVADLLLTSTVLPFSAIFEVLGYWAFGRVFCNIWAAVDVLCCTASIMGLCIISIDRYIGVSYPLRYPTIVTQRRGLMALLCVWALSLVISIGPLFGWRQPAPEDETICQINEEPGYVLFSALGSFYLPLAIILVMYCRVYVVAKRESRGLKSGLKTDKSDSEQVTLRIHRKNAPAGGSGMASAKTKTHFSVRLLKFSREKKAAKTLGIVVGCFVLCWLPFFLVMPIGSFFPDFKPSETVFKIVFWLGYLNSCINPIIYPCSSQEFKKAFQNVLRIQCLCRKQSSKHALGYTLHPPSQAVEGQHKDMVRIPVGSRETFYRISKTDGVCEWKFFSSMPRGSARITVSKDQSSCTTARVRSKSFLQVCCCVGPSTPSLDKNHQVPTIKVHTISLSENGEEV
Source text: as §1, §2, §3, §4, §5

[6] = target: T4, M3 (muscarinic Ach) (Homo sapiens, UniProt P20309); experiment: GPCR agonist action testing; assay type: cell-based
T4 sequence (P20309 whole entry): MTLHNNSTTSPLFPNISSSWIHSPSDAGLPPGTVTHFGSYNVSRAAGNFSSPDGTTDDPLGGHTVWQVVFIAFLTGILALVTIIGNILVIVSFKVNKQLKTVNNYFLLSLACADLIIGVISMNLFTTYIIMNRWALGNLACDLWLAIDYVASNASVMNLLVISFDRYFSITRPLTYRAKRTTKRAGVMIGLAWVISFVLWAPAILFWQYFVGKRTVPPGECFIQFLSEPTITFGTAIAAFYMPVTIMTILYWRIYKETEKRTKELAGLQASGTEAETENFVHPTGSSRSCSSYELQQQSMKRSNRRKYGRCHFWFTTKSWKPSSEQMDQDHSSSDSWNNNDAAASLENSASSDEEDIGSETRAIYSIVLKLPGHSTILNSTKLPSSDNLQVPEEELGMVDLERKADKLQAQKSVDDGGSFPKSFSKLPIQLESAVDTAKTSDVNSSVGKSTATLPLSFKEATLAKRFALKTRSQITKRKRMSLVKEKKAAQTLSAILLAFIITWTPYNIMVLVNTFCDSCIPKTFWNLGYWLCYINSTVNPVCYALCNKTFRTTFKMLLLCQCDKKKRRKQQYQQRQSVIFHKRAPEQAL
Source text: as §1, §2, §3, §4, §5

[7] = target: T5, 5-HT1A (serotonin) (Homo sapiens, UniProt P08908); experiment: GPCR agonist action testing; assay type: cell-based
T5 construct: Wuxi AppTech (Shanghai, China)
T5 sequence (P08908 whole entry, species assumed): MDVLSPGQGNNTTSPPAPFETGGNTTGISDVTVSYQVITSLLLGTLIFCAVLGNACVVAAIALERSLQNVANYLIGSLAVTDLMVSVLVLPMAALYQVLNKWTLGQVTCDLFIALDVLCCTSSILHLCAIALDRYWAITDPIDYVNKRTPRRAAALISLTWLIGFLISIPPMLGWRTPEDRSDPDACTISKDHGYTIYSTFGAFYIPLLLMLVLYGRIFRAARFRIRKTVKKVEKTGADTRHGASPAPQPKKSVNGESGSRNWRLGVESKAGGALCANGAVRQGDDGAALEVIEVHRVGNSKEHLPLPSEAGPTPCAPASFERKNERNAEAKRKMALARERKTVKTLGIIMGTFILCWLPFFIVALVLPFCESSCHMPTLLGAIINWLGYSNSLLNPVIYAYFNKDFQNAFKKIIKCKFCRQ
Source text: as §1, §2, §3, §4, §5

[8] = target: T6, 5-HT2A (serotonin) (Homo sapiens, UniProt P28223); experiment: GPCR agonist action testing; assay type: cell-based
T6 construct: Wuxi AppTech (Shanghai, China)
T6 sequence (P28223 whole entry): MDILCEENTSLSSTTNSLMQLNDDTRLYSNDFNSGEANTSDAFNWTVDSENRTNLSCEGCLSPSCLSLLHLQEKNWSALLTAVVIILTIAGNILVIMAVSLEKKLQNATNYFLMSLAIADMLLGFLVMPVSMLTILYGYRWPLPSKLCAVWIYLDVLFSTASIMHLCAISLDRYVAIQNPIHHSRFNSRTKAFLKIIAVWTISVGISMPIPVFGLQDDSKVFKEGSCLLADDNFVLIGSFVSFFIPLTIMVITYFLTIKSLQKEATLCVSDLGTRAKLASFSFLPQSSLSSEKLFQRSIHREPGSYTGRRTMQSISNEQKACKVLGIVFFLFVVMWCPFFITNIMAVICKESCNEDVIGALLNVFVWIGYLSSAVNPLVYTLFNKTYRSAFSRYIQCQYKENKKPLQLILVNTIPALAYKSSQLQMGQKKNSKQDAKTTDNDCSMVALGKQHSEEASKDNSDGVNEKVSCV
Source text: as §1, §2, §3, §4, §5

[9] = target: T7, M2 (muscarinic Ach) (Homo sapiens, UniProt P08172); experiment: GPCR agonist action testing; assay type: cell-based
T7 sequence (P08172 whole entry): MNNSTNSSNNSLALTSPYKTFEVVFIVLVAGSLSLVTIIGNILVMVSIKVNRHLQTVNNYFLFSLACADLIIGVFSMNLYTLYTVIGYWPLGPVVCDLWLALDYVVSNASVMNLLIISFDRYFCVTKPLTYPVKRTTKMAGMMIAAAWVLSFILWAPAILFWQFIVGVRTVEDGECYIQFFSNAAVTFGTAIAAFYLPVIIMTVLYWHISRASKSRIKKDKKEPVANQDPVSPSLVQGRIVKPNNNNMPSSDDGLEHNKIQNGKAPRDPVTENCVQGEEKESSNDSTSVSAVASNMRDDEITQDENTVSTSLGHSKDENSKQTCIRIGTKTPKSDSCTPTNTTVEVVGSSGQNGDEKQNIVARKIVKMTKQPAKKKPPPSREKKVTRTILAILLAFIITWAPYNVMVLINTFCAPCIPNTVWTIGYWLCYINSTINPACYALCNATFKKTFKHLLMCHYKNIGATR
Source text: as §1, §2, §3, §4, §5

[10] = target: T8, b1 (adrenoceptor) (Homo sapiens, UniProt P08588); experiment: GPCR agonist action testing; assay type: cell-based
T8 construct: Wuxi AppTech (contract laboratory)
T8 sequence (P08588 whole entry): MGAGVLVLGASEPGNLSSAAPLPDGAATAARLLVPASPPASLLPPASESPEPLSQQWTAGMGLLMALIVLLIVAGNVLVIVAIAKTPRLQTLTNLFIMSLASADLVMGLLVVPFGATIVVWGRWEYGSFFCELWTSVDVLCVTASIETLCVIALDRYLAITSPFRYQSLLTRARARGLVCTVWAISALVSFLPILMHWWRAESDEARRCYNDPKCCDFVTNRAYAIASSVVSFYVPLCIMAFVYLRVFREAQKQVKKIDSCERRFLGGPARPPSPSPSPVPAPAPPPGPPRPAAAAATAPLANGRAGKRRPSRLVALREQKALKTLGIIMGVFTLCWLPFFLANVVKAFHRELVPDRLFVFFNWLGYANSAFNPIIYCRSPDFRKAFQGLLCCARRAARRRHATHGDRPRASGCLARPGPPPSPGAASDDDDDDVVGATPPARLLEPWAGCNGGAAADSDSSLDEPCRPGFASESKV
Source text: as §1, §2, §3, §4, §5

[11] = target: op-m (opioid) (Homo sapiens, UniProt P35372); experiment: GPCR agonist action testing; assay type: cell-based
Source text: as §1, §2, §3, §4, §5

[12] = test system: AD2 (adenosine); experiment: GPCR agonist action testing; assay type: cell-based
Source text: as §1, §2, §3, §4, §5

[13] = target: T9, D2 (dopamine) (Homo sapiens, UniProt P14416); experiment: GPCR agonist action testing; assay type: cell-based
T9 construct: Wuxi AppTech (contract laboratory)
T9 sequence (P14416 whole entry): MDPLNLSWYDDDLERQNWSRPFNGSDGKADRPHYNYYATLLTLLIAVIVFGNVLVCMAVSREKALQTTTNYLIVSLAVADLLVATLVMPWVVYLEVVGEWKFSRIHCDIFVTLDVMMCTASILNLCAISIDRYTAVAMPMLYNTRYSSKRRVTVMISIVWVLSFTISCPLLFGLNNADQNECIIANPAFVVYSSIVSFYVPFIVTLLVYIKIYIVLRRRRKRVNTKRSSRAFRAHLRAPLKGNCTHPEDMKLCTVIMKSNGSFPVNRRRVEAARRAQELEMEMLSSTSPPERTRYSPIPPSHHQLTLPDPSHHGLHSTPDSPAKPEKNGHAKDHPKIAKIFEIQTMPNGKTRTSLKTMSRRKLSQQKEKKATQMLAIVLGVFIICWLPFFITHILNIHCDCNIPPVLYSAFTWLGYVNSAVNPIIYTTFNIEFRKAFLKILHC
Source text: as §1, §2, §3, §4, §5

[14] = test system: MV-4-11 cells; experiment: Western blot of CDK9-regulated signaling in cultured cells; assay type: cell-based, human; conditions: 4-hour incubation
Procedure: Figure 4 Effect of GFH009 on CDK9-dependent gene expression in cells. Western blot of MV-4-11 cells after exposure to different concentrations of GFH009 or Enitociclib for 4 hours was analyzed. A representative blot was shown from 3 independent experiments.
The effect of GFH009 on CDK9-regulated signaling pathways in human hematological malignancy cell lines was assessed via western blot. Cultured MV-4-11 cells, derived from human blastic AML cells (ATCC), were incubated at 37°C and 5% CO2 for 4 hours at final concentrations of 1 μM, 0.3 μM, 0.1 μM, 0.03 μM, and 0.01 μM for both GFH009 and enitociclib. Protein isolates were collected from pelleted cells as previously described, semi-quantified via western blot and analyzed using Image Studio 5.0 (LI-COR Biosciences, Lincoln, NE, USA).

[15] = target: M1 (muscarinic Ach) (Homo sapiens, UniProt P11229); experiment: GPCR competitive antagonist (off-target inhibitory action) testing; assay type: cell-based
M1 (muscarinic Ach), sequence (P11229 whole entry): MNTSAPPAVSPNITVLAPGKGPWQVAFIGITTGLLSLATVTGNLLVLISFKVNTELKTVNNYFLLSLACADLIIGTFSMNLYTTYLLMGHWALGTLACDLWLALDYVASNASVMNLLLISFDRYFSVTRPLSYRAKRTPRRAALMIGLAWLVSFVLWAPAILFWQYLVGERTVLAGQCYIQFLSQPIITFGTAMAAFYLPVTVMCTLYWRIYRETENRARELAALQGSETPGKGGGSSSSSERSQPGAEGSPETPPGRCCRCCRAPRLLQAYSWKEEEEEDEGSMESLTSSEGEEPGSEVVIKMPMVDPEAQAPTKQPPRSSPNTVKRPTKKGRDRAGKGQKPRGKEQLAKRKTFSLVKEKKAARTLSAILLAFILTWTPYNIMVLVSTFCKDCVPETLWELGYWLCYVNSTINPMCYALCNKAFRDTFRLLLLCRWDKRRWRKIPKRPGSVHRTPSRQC
Source text: (§6) Supplementary Table 3: Results of off-target inhibitory action testing of GFH009 administered at
(§7) Competitive antagonist activity against GPCR type shown below
(§8) Target % Inhibitory Effect @ Max Dose
(§9) M1 (muscarinic Ach) 98.78
(§10) M2 (muscarinic Ach) 95.69
(§11) M3 (muscarinic Ach) 99.12

[16] = target: T4, M3 (muscarinic Ach); experiment: as above; assay type: cell-based
Source text: as §6, §7, §8, §9, §10, §11

[17] = target: T7, M2 (muscarinic Ach); experiment: as above; assay type: cell-based
Source text: as §6, §7, §8, §9, §10, §11

Structure (SMILES): COC[C@@H](C)NC1CCC(Nc2cc(-c3csc(NCC4(C#N)CCOCC4)n3)c(Cl)cn2)CC1 (stereo partly drawn) [GFH009]
- Tumor total volume at 10.0 mg/kg ([1]; 10.0 mg/kg i.v., through day 29): consistent reduction in total volume
- Tumor growth (total volume) compared to the vehicle control ([1]; i.v., GFH009 maleate 2.5, 5.0, 10.0 mg/kg QW or BIW, enitociclib 10.0 mg/kg QW, 3 weeks): tumor growth inhibition
- IC50 [2]: < 200 nM
- % Agonist Effect @ Max Dose (12 µM) [3]: −51.01%
- % Agonist Effect @ Max Dose (12 µM) [4]: −0.7%
- % Agonist Effect @ Max Dose (12 µM) [5]: 4.58%
- % Agonist Effect @ Max Dose (12 µM) [6]: 0.49%
- % Agonist Effect @ Max Dose (12 µM) [7]: −0.33%
- % Agonist Effect @ Max Dose (12 µM) [8]: −1.68%
- % Agonist Effect @ Max Dose (12 µM) [9]: −0.63%
- % Agonist Effect @ Max Dose (12 µM) [10]: 4.53%
- % Agonist Effect @ Max Dose (12 µM) [11]: 0.71%
- % Agonist Effect @ Max Dose (12 µM) [12]: 21.7%
- % Agonist Effect @ Max Dose (12 µM) [13]: 3.66%
- Expression levels of MCL-1 and c-Myc ([14]; 0.01-1 μM, western blot): dose-dependently decreased
- Expression level of phospho-Rpb1 CTD Ser2 ([14]; increasing concentration, western blot): gradually decreased
- Expression levels of phospho-Rpb1 CTD Ser5 and total Rpb1 ([14]; vs DMSO-only control): not significantly different
- Concentration inducing cleavage of caspase-3 and PARP ([14]; western blot): greater than 0.1 μM
- % Inhibitory Effect @ Max Dose (10 µM) [15]: 98.78%
- % Inhibitory Effect @ Max Dose (10 µM) [16]: 99.12%
- % Inhibitory Effect @ Max Dose (10 µM) [17]: 95.69%
